# Measured values reported in US20100178317A1, “Lens Care Solutions with Hyaluronic Acid” (priority 2009, published 2010).
# Assay: Precipitate formation of polyquaternium-1 in hyaluronic acid compositions
# Type: physicochemical
# Details: polyquaternium-1 concentration beyond 3 ppm
# Source text: One of the more common quaternary ammonium compounds is α-[4-tris(2-hydroxyethyl)-ammonium chloride-2-butenyl]poly[1-dimethyl ammonium chloride-2-butenyl]-ω-tris(2-hydroxyethyl) ammonium chloride, also referred to in the art as polyquaternium-1. Quaternary ammonium compounds are generally referred to in the art as “polyquatemium” disinfectants, and are identified by a particular number following the designation such as polyquaternium-1, polyquaternium-10 or polyquaternium-42. Polyquaternium-1 is present in the ophthalmic compositions from 0.5 ppm to 3 ppm. […] The precipitate is believed to be the complexation product of hyaluronic acid and polyquaternium-1.
substance,measurement,value
α-[4-tris(2-hydroxyethyl)-ammonium chloride-2-butenyl]poly[1-dimethyl ammonium chloride-2-butenyl]-ω-tris(2-hydroxyethyl) ammonium chloride [polyquaternium-1],compatibility with hyaluronic acid in the compositions,formation of a precipitate
